Reference: ChEMBL document CHEMBL1143080, “Discovery of a novel series of nonsteroidal androgen receptor modulators: 5- or 6-oxachrysen-2-ones” (Bioorg Med Chem Lett, 2008)

Assays:
Androgen receptor [1] = molecular target: T1, Androgen receptor (Homo sapiens, UniProt P10275)
T1 sequence (P10275 whole entry): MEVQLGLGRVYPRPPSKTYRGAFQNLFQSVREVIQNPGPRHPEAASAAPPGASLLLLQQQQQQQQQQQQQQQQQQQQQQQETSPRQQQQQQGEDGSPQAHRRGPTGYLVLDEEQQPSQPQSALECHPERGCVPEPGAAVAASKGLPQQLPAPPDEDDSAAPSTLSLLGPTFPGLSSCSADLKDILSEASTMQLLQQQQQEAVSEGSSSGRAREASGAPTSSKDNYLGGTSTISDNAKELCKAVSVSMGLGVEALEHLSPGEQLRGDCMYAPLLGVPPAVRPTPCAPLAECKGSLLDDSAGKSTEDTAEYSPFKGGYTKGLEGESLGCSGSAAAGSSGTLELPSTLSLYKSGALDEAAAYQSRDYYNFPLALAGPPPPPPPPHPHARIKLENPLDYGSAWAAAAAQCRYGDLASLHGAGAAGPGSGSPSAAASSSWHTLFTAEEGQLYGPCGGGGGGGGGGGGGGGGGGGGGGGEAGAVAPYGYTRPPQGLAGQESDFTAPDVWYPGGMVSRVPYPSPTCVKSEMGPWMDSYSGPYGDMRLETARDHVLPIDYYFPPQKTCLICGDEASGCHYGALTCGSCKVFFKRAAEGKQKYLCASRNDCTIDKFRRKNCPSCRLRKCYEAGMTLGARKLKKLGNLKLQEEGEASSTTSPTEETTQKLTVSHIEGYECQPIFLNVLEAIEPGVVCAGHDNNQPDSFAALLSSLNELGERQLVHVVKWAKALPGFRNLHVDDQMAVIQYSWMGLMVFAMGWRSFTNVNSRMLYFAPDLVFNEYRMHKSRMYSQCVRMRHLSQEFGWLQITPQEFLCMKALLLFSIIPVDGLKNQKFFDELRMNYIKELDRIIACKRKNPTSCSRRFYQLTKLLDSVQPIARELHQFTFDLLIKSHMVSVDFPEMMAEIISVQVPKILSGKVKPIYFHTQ
Description: Antagonist activity at human androgen receptor african green monkey CV1 cells by cotransfection assay

Androgen receptor [2] = molecular target: T1, Androgen receptor; remark: listed apart in the source
Description: Binding affinity to human androgen receptor expressed in monkey COS7 cells by whole cell binding assay

Androgen receptor [3] = molecular target: T1, Androgen receptor; remark: listed apart in the source
Description: Agonist activity at human androgen receptor african green monkey CV1 cells by cotransfection assay

Androgen receptor [4] = molecular target: T1, Androgen receptor; remark: listed apart in the source
Description: Activity at androgen receptor in human Saos2 cells assessed as IL6 repression

| Structure (SMILES) | IC50 (Androgen receptor [1]) [nM] | Ki (Androgen receptor [2]) [nM] | EC50 (Androgen receptor [3]) [nM] | IC50 (Androgen receptor [4]) [nM] |
| --- | --- | --- | --- | --- |
| COc1ccc2oc(=O)c3c(ccc4[nH]c(=O)cc(C)c43)c2c1 | 48 | 610 | > 10000 | 0.8 |
| C=CCC1Oc2cccc(OC)c2-c2ccc3[nH]c(=O)cc(C)c3c21 (stereo not given) | 144 | 1590 | > 10000 | – |
| O=c1cc(C(F)(F)F)c2c3c(ccc2[nH]1)-c1c(O)cccc1OC3 | > 10000 | 1.3 | 16 | 1.1 |
| COc1c(O)ccc2c1-c1ccc3[nH]c(=O)cc(C)c3c1CO2 | 19 | 5 | 306 | 1.2 |
| COc1cccc2c1-c1ccc3[nH]c(=O)cc(C)c3c1C(OC)O2 (stereo not given) | 19 | 2350 | 184 | 112 |
| COc1cccc2c1-c1ccc3[nH]c(=O)cc(C(F)(F)F)c3c1OC2 | 78 | 27 | > 10000 | 477 |
| COc1c(C(=O)OC(F)(F)F)ccc2oc(=O)c3c(ccc4[nH]c(=O)cc(C)c43)c12 | > 10000 | 10 | 43 | 0.2 |
| Cc1cc(=O)[nH]c2ccc3c4c(C(=O)OC(C)(C)C)cccc4oc(=O)c3c12 | > 10000 | 8.7 | 1.1 | 1.9 |
| COc1cccc2c1-c1ccc3[nH]c(=O)cc(C)c3c1C(O)O2 (stereo not given) | > 10000 | 1300 | 208 | 50 |
| COc1c(OC(C)C)ccc2oc(=O)c3c(ccc4[nH]c(=O)cc(C)c43)c12 | 20 | 21 | 23 | 2.8 |
| COc1cccc2oc(=O)c3c(ccc4[nH]c(=O)cc(C)c43)c12 | > 10000 | 28 | 11 | 21 |
| Cc1cc(=O)[nH]c2ccc3c4cc(F)ccc4oc(=O)c3c12 | 27 | 1000 | 240 | 101 |
| COc1cccc2c(=O)oc3c(ccc4[nH]c(=O)cc(C(F)(F)F)c43)c12 | > 10000 | 50 | 90 | 89 |
| CCOc1ccc2oc(=O)c3c(ccc4[nH]c(=O)cc(C)c43)c2c1OC | > 10000 | 62 | 18 | 10 |
| COc1cccc2c1-c1ccc3[nH]c(=O)cc(C)c3c1CO2 | > 10000 | 59 | 50 | 12 |
| COc1c(O)ccc2oc(=O)c3c(ccc4[nH]c(=O)cc(C)c43)c12 | > 10000 | 4 | 21 | 0.2 |
| COc1cccc2c1-c1ccc3[nH]c(=O)cc(C)c3c1C(C)O2 (stereo not given) | 62 | 250 | > 10000 | – |
| COc1cccc2c1-c1ccc3[nH]c(=O)cc(C(F)(F)F)c3c1CO2 | > 10000 | 11 | 20 | 14 |
